The conditions of data set [1]: by volume, wet dispersion in Isopar G, sonicated 3 minutes; mesylate. From the text:
The particle size parameters measured in the present disclosure have been obtained by means of laser light diffraction technique, and specifically by means of a Malvern Mastersizer S particle size analyzer having characteristics as set out below. Namely, the laser source used was a 2 milliwatt Helium/neon laser (633 nm wavelength); the detection system was a Fourier Transform lens system; the sample was run using a […]; the sample unit was a sample unit for wet measurement, and particularly was a MS1-Small volume Sample Dispersion Unit stirred cell. The wet dispersion was prepared by using a solution of 1.5 g of Soybean Lecithin in 200 mL of Isopar G as a sample dispersant, and the dispersion was controlled by stirring the unit cell. […] The characterization parameters (volume distributions) were measured for at least six times for each sample, and the result is a mean of said measured values for each sample.
A 300RF mm lens and a beam length of 2.4 mm were used. Preparation of sample dispersant: 1.5 g of Soybean Lecithin was added to 200 mL of Isopar G, and the mixture was mixed gently until Lecithin dissolved. […] The paste was delivered to the previously background and corrected measuring cell filled with dispersant (Isopar G) until the obscuration reached the desired level. The suspension was sonicated for 3 minutes. Volume distributions were obtained for at least six measures. After completing the measurements, the sample cell was emptied and cleaned, refilled with suspending medium, and the sampling procedure repeated again. For characterization, the values of D10, D50 and D90 (by volume) were specifically listed, each one being the mean of the measured values available for each characterization parameter.
The notation Dx [also written as D(v, 0.X)] means that X % of the particles have a diameter less than a specified diameter D. Thus a D90 [or D(v, 0.9)] of 100 μm means that 90% of the particles have a diameter less than 100 μm.

The conditions of data set [2]: N2 at 77 K, relative pressures 0.05 to 0.3; mesylate. The text has this: The specific surface area values disclosed in the present disclosure have been obtained by means of a specific surface area analysis technique based on the BET (Brunauer, Emmett and Teller) theory, which is a well-accepted theory known in the art for the calculation of surface areas of solids by means of measuring their physical adsorption of gas molecules (See S. Brunauer, P. H. Emmett and E. Teller, J. Am. Chem. Soc., 1938, 60, 309). In particular, the specific surface area values measured have been calculated from the BET surface area plot obtained by measuring the quantity of nitrogen gas molecules adsorbed by a weighted amount of solid at different relative pressures (P/P0) within the range 0.05 to 0.3, at 77K. Precisely, the measurement of the adsorption of gas molecules was carried out by means of a Micromeritics™ Gemini V equipment having the characteristics as set out below. Namely, the gas used for adsorption measure was nitrogen gas. […] The sample for analysis was degassed (at 30° C. for 10 minutes and at 130° C. for 90 minutes). The determination of the adsorption of nitrogen was measured at 77K and for twelve relative pressures sufficiently dispersed within in the range of 0.05 to 0.3 (i.e. twelve absolute pressures in the range of 38.860001 mmHg to 230.464996 mmHg relative to a saturated pressure of 765.705017 mmHg).
The sample for analysis was degassed at 30° C. for 10 minutes and at 130° C. for 90 minutes.

How the values of data set [3] were obtained:
The substantial absence of agglomeration in accordance with the present invention can be determined by visual inspection and/or by optical microscopy. […] That is, the smallest agglomerate to be observed by particle size analysis would be the agglomerate resultant of the union of a single crystal with another which would lead to an increase of 100% in the D90 and/or the D50 measured value.
The chromatographic separation was carried out in a Chiralpak IC, 5 μm, 250×4.6 mm I.D column; at 30° C.
The mobile phase was prepared by mixing 950 mL of n-hexane, 40 mL of 2-propanol, 10 mL of ethanol, 4 mL of trifluoroacetic acid and 1 mL of diethylamine. The mixture was mixed thoroughly.
The chromatograph was equipped with a 265 nm detector, and the flow rate was 1.4 mL per minute.
The test samples were prepared by dissolving the appropriate amount of sample to obtain 10 mg per mL in diluent. The diluent was prepared by mixing 89 mL of mobile phase, 10 mL of 2-propanol and 1 mL of diethylamine. The injection volume was 5 μL.
Samples were taken and analyzed after 1, 2, 3 and 6 months storage.

For data set [4] the following is noted: 25° C.±1° C., 80%±2% relative humidity, 24 hours. The protocol:
The percentage increase in mass was calculated based on the hygroscopicity method described in the European Pharmacopoeia 5.0 (general chapter 5.11).

For data set [5] the following is noted: WO 2008/019871 Example 8, prepared in isopropanol; cited from earlier work.
The conditions of data set [6]: cited from earlier work.
For data set [7] the following is noted: heating at 80° C. for 72, 96 or 144 hours, and refluxing in isopropanol for 30 hours; cited from earlier work.
The conditions of data set [8]: material with D90 of less than 6 μm stored at 25±2° C., 65±5% relative humidity, 5 days; cited from earlier work.
For data set [9] the following is noted: cited from earlier work. This is another data set of the same source.

The values below come from US20110015274A1, “FORM OF AN […] DERIVATIVE” (priority 2009, published 2011).

Values joined by “and” are separate entries in the source; they are usually repeats but may differ in a detail not shown here. Equal entries are not always repeated. Where two headings read alike, the source gives them in different places.

`C#CCN[C@@H]1CCc2ccccc21.CS(=O)(=O)O` [Example 1, R-(+)-N-propargyl-1-aminoindan mesylate]: in [1], the “Particle size D(v, 0.1)” value is listed as 30.6 μm; the “Particle size D(v, 0.5)” value is on record as 89.0 μm; the “Particle size D(v, 0.9)” value was 163.6 μm. The “Specific Surface Area (BET)” value in [2] is listed as 0.0722 m^2/g.

Take `C#CCN[C@@H]1CCc2ccccc21.CS(=O)(=O)O` [Example 3, R-(+)-N-propargyl-1-aminoindan mesylate]: in data set [1], the “Particle size D(v, 0.1)” value worked out at 37.4 μm; the “Particle size D(v, 0.5)” value is reported as 159.6 μm; the “Particle size D(v, 0.9)” value is given as 404.2 μm. Further, in data set [2], the “Specific Surface Area (BET)” value is 0.0474 m^2/g.

As for `C#CCN[C@@H]1CCc2ccccc21.CS(=O)(=O)O` [Example 4, R-(+)-N-propargyl-1-aminoindan mesylate], the “Particle size D(v, 0.1)” value in data set [1] was 54.9 μm. Further, the “Particle size D(v, 0.5)” value in [1] is listed as 208.5 μm. Also, the “Particle size D(v, 0.9)” value in [1] worked out at 464.0 μm. For the same compound, in data set [2], the “Specific Surface Area (BET)” value stood at 0.1434 m^2/g. In addition, the “Total impurities (HPLC)” value was less than 0.05% in data set [3] (1 month, 40±2° C., 75%±5% relative humidity); less than 0.05% in data set [3] (2 months, 40±2° C., 75%±5% relative humidity); less than 0.05% in data set [3] (3 months, 40±2° C., 75%±5% relative humidity); less than 0.05% in data set [3] (6 months, 40±2° C., 75%±5% relative humidity); less than 0.05% in data set [3] (Initial sample). Moreover, in [4], the “% Mass increase” value worked out at 0.01%. For the same compound, the “Hygroscopicity (in words)” value in data set [4] is on record as “not hygroscopic material”.

For the compound `C#CCN[C@@H]1CCc2ccccc21.CS(=O)(=O)O` [Reference Example 1, R-(+)-N-propargyl-1-aminoindan mesylate], in data set [1], the “Particle size D(v, 0.1)” value worked out at 17.4 μm; the “Particle size D(v, 0.5)” value worked out at 62.6 μm; the “Particle size D(v, 0.9)” value is 118.0 μm. Further, in [2], the “Specific Surface Area (BET)” value was found to be 0.3216 m^2/g.

`C#CCN[C@@H]1CCc2ccccc21.CS(=O)(=O)O` [rasagiline mesylate, R-(+)-N-propargyl-1-aminoindan mesylate]: in data set [5], the “Particle size d(0.1)” value is 13.6±0.05 μm, the “Particle size d(0.5)” value is 40.5±0.25 μm, the “Particle size d(0.9)” value is reported as 85.7±0.89 μm and the “Particles below 250 μm” value was 100%. The “Behaviour of the powder on storage” value in [6] (4 weeks at 40° C., 75% relative humidity in an opened container) is “transforms into a sticky powder”. Besides, the “Behaviour of the powder on storage” value in data set [6] (4 weeks at 60° C. in a closed glass bottle) was “agglomerates”. Besides, the “Change in water content on storage” value in [6] (4 weeks storage, WO 2008/019871 Example 5) is on record as “no substantial changes”. Besides, the Appearance result in data set [7] is recorded as “kept an appearance of white powder”. For the same compound, the D90 after storage result in data set [8] was “approximately 151 μm”. Besides, the “d(0.9) or D90 after milling” value in [9] (after milling) is listed as 156-189 μm. Further, the “d(0.9) or D90 before milling” value in data set [9] (samples containing large, irregular particles, initial) is recorded as 386-598 μm.

In the case of `C#CCN[C@@H]1CCc2ccccc21.CS(=O)(=O)O` [Example 2, R-(+)-N-propargyl-1-aminoindan mesylate], in [1], the “Particle size D(v, 0.1)” value was determined as 37.0 μm; the “Particle size D(v, 0.5)” value stood at 118.7 μm; the “Particle size D(v, 0.9)” value was determined as 246.7 μm.

Take `C#CCN[C@@H]1CCc2ccccc21.CS(=O)(=O)O` [Reference Example 3, R-(+)-N-propargyl-1-aminoindan mesylate]: in data set [1], the “Particle size D(v, 0.1)” value was determined as 127.5 μm; the “Particle size D(v, 0.5)” value is 311.2 μm; the “Particle size D(v, 0.9)” value was 611 μm and 611.1 μm. Further, in [2], the “Specific Surface Area (BET)” value was 0.0274 m^2/g.

In the case of `C#CCN[C@@H]1CCc2ccccc21.CS(=O)(=O)O` [Reference Example 2, R-(+)-N-propargyl-1-aminoindan mesylate], in data set [1], the “Particle size D(v, 0.1)” value turned out to be 14.7 μm; the “Particle size D(v, 0.5)” value was found to be 60.2 μm; the “Particle size D(v, 0.9)” value was 143.6 μm. The “Specific Surface Area (BET)” value in data set [2] was 0.2490 m^2/g.
